Results on three compounds are retold here after publication PMC12040275, “Fusaric acid-mediated S-glutathionylation of MaAKT1 channel confers the virulence of Foc TR4 to banana” (PLOS Pathogens, 2025).

In general, inhibition refers to the drop in the measured response relative to a control, in per cent.

For test [1], the target named is T1, MaAKT1 (Musa acuminata, UniProt A0A804HWY8).
T1 construct: synthesized cDNA in pcDNA 6/His A, expressed in HEK-293 cells; patch-clamp
As to the kind of experiment: whole-cell patch clamp, HEK-293. The format is cell-based. Particulars: HEK293.

In test [2] the target is T1, MaAKT1. The experiment in a line: patch clamp, giant inside-out patches from HEK-293. Particulars: covalent (cysteine thiol oxidation); applied to cytosolic side; -194 mV. Type of test: biochemical. (In general: Patch clamp records ionic current or voltage across a cell membrane.)

T1 sequence (A0A804HWY8 1-891): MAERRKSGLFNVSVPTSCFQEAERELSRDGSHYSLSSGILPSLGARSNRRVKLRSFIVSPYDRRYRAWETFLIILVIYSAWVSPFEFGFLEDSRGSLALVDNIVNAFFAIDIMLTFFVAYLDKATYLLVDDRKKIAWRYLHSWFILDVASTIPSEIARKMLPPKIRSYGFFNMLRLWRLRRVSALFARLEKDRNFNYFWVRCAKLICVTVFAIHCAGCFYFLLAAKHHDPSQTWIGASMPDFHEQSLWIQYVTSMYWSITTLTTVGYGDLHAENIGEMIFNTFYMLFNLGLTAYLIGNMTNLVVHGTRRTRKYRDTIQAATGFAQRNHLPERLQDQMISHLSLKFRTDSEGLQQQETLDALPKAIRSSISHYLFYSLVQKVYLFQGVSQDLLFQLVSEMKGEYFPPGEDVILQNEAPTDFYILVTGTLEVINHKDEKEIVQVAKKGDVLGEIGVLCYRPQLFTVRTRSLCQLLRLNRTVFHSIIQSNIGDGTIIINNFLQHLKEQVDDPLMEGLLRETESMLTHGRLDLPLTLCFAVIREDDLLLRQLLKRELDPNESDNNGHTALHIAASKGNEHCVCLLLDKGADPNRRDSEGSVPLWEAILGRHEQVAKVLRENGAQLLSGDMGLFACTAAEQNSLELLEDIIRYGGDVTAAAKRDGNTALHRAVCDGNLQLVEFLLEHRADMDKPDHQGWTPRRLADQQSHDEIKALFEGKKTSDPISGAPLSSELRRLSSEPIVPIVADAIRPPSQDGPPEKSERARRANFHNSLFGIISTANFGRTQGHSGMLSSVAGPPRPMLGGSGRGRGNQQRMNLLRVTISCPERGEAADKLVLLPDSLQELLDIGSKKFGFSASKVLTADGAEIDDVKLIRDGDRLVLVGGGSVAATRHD

Consider `c1ccc(SSc2ccccn2)nc1` [2-DTP, 2,2-Dithiodipyridine], for which 50 µM produced 61.5 ± 6.66% inhibition against MaAKT1 [1].
Regarding `O=[N+]([O-])c1ccc(SSc2ccc([N+](=O)[O-])cn2)nc1` [DTNP, 2,2’-dithiobis-5-nitropyridine], testing at 50 µM on MaAKT1 [1] gave an inhibition of 60 ± 9.89%.
With `O=C(O)c1cc(SSc2ccc([N+](=O)[O-])c(C(=O)O)c2)ccc1[N+](=O)[O-]` [DTNB, 5,5-dithiobis-2-nitrobenzoic acid], the “patch clamp, giant inside-out patches from HEK-293” value on MaAKT1 [2] is “low concentration of DTNB significantly inhibited MaAKT1”.
